Data as given in US8062995B2, “Dioxazine-substituted arylamides” (Bayer CropScience AG, priority 2005, dated 2011).

Experiments:
[1] = system: caterpillars of the army worm (Spodoptera frugiperda); test: Spodoptera frugiperda test (SPODFR spray treatment); type: in vivo; conditions: for Kill rate after 7d in %: 100 g/ha, spray treatment
In short: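 Compound formulated in acetone/DMF with alkylaryl polyglycol ether emulsifier, diluted in emulsifier-containing water and sprayed on maize leaf discs; after drying, discs infested with Spodoptera frugiperda caterpillars. Mortality (%) scored after a set period, 100% meaning all caterpillars killed.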

[2] = system: green peach aphid (Myzus persicae); test: Myzus test (MYZUPE spray treatment); type: in vivo; conditions: for Kill rate after 5d in %: 100 g/ha, spray treatment
In short: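 Chinese cabbage leaf discs infested with all aphid stages sprayed with compound in acetone/DMF with alkylaryl polyglycol ether emulsifier, diluted in emulsifier-containing water to the desired concentration. After the set period, percent activity scored as aphids killed (100% = all dead, 0% = none).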

[3] = system: larvae of the mustard beetle (Phaedon cochleariae); test: Phaedon test (sprayed Chinese cabbage discs); type: in vivo; conditions: for Kill rate after 7d in %: 100 g/ha
In short: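 Compound formulated in acetone/DMF with alkylaryl polyglycol ether emulsifier, diluted in emulsifier-containing water and sprayed onto Chinese cabbage (Brassica pekinensis) leaf discs. After drying, discs infested with Phaedon cochleariae larvae; % kill scored after set time (100% = all larvae dead, 0% = none).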

[4] = system: caterpillars of the army worm (Spodoptera exigua); test: Spodoptera exigua test (leaf dip); type: in vivo
In short: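 Compound in DMF with alkylaryl polyglycol ether emulsifier, diluted in water to test concentration; cabbage leaves dipped and infested with Spodoptera exigua caterpillars while still moist. Kill (%) scored after a set period, 100% meaning all caterpillars dead.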

[5] = system: green peach aphid (Myzus persicae); test: Myzus persicae test; systemic treatment; type: in vivo; conditions: for Kill rate after 6d in %: 20 ppm, systemic treatment
Procedure: Myzus persicae Test; Systemic Treatment Solvent: 7 parts by weight of dimethylformamide Emulsifier: 2 parts by weight of alkylaryl polyglycol ether To produce a suitable preparation of active compound, 1 part by weight of active compound is mixed with the stated amounts of solvent and emulsifier and the concentrate is diluted with water to the desired concentration. The active compound preparation is mixed with water. The stated concentration refers to the amount of active compound per volume unit of water (mg/l=ppm). The treated water is filled into vessels with a pea plant (Pisum sativum) which is then infected with the green peach aphid (Myzus persicae). After the desired period of time, the kill in % is determined. 100% means that all aphids have been killed; 0% means that none of the aphids have been killed.

[6] = system: caterpillars of the cotton bollworm (Heliothis armigera); test: Heliothis armigera test (leaf dip); type: in vivo
In short: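 Compound was formulated in dimethylformamide with alkylaryl polyglycol ether emulsifier and diluted in emulsifier-containing water. Soya bean leaves were dipped in the preparation and populated with Heliothis armigera caterpillars while still moist. Kill (%) was scored after the desired period.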

[7] = system: green peach aphid (Myzus persicae); test: Myzus test; oral; type: in vivo
Procedure: Myzus Test; Oral Solvent: 80 parts by weight of acetone To produce a suitable preparation of active compound, 1 part by weight of active compound is mixed with the stated amounts of solvent and the concentrate is diluted with water to the desired concentration. Vessels are populated with all stages of the green peach aphid (Myzus persicae) which are treated by sucking the active compound preparation of the desired concentration. After the desired period of time, the activity in % is determined. 100% means that all aphids have been killed; 0% means that none of the aphids have been killed.

[8] = logP determination by HPLC (reversed-phase C18), EEC Directive 79/831 Annex V.A8; type: physicochemical; conditions: HPLC reversed-phase C18, 43° C., acidic range pH 2.7
[9] = system: caterpillars of the diamondback moth (Plutella xylostella); test: Plutella test (leaf dip); type: in vivo
Procedure: (§1) Plutella Test Solvent: 7 parts by weight of dimethylformamide Emulsifier: 2 parts by weight of alkylaryl polyglycol ether To produce a suitable preparation of active compound, 1 part by weight of active compound is mixed with the stated amounts of solvent and emulsifier and the concentrate is diluted with emulsifier-containing water to the desired concentration. Cabbages leaves (Brassica oleracea) are treated by being dipped into the active compound preparation of the desired concentration and populated with caterpillars of the diamondback moth (Plutella xylostella) while the leaves are still moist. After the desired period of time, the kill in % is determined. 100% means that all caterpillars have been killed; 0% means that none of the caterpillars have been killed.

[10] = system: Spodoptera exigua, resistant strain; test: Spodoptera exigua test; resistant strain; type: in vivo; conditions: for Kill rate after 7d in %: resistant strain
In short: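 Cabbage leaves dipped in compound preparation (DMF solvent, alkylaryl polyglycol ether emulsifier, diluted in emulsifier-containing water) and infested with caterpillars while still moist. After the set period, kill scored in %: 100% all caterpillars dead, 0% none dead.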

[11] = system: Spodoptera frugiperda larvae; test: Spodoptera frugiperda test (treatment by watering); type: in vivo; conditions: 20 ppm; 14 d; treatment by watering
In short: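 Compound formulated in dimethylformamide with alkylaryl polyglycol ether emulsifier and diluted with water to the desired concentration. Maize plants are watered with the preparation, then infested with Spodoptera frugiperda larvae. After the set period, % larval kill is scored (100% = all killed, 0% = none).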

[12] = system: cotton aphid (Aphis gossypii); test: Aphis gossypii test (leaf dip); type: in vivo; conditions: for Kill rate after 6d in %: 100 ppm
Procedure: as §1, with “Aphis gossypii” for “Plutella”, “Cotton” for “Cabbages”, “(Gossypium hirsutum) which are heavily infested by the cotton aphid (Aphis gossypii)” for “(Brassica oleracea)”, “concentration.” for “concentration and populated with caterpillars of the diamondback moth (Plutella xylostella) while the leaves are still moist.”, “aphids” for “caterpillars”

SMILES | activity in the Spodoptera frugiperda test, spray treatment (in words) [1] | Kill rate after 7d in % [1] [%] | activity in the Myzus test, spray treatment (in words) [2] | Kill rate after 5d in % [2] [%] | activity in the Phaedon test (in words) [3] | Kill rate after 7d in % [3] [%] | activity in the Spodoptera exigua test (in words) [4] | activity in the Myzus persicae test, systemic treatment (in words) [5] | Kill rate after 6d in % [5] [%] | activity in the Heliothis armigera test (in words) [6] | Kill rate after 7d in % ([6]; 20 ppm) [%] | logP [8] | activity in the Plutella test (in words) [9] | activity in the Spodoptera exigua test, resistant strain (in words) [10] | Kill rate after 14d in % [11] [%] | activity in the Aphis gossypii test (in words) [12] | Kill rate after 6d in % [12] [%] | Kill rate after 7d in % ([4]; 4 ppm) [%] | Kill rate after 7d in % ([6]; 4 ppm) [%] | also measured
Cc1cccc(C2=NOCCN2)c1NC(=O)c1cc(C(F)(F)F)nn1-c1ncccc1Cl [Example I-1-16] | good activity | 100 | good activity | 100 | good activity | 100 | good activity | good activity | 100 | good activity | 100 | 1.98 | good activity |  |  |  |  |  |  | Kill rate after 7d in % ([4]; 20 ppm): 100%; activity in the Myzus test, oral (in words) [7]: good activity; Kill rate after 5d in % ([7]; 100 ppm, 5 d, oral): 100%; Kill rate after 7d in % ([9]; 100 ppm): 100%
Cc1cc(Cl)cc(C2=NOCCN2)c1NC(=O)c1cc(C(F)(F)F)nn1-c1ncccc1Cl [Example I-1-18] | good activity | 100 | good activity | 100 | good activity | 100 | good activity | good activity | 95 | good activity | 100 | 2.70 | good activity | good activity | 95 |  |  |  |  | Kill rate after 7d in % ([4]; 100 ppm): 100%; Kill rate after 7d in % ([10]; 100 ppm): 100%; Kill rate after 7d in % ([9]; 20 ppm): 100%
Cc1cc(Cl)cc(C2=NOCCN2)c1NC(=O)c1cc(Br)nn1-c1ncccc1Cl [Example I-1-19] | good activity | 100 | good activity | 90 | good activity | 100 | good activity | good activity | 90 | good activity |  | 2.25 | good activity | good activity | 95 | good activity | 80 | 80 | 100 | Kill rate after 7d in % ([10]; 20 ppm): 100%; Kill rate after 7d in % ([9]; 0.8 ppm): 100%
Cc1cc(Cl)cc(C2=NOCCN2)c1NC(=O)c1cc(Cl)nn1-c1ncccc1Cl [Example I-1-20] | good activity | 100 | good activity | 100 | good activity | 100 | good activity |  |  | good activity |  | 2.25 | good activity |  | 95 | good activity | 80 | 100 | 100 | Kill rate after 7d in % ([9]; 4 ppm): 100%
